Laboratory results taken from ChEMBL document CHEMBL5537123, “Discovery of triazole tethered thymol/carvacrol-coumarin hybrids as new class of α-glucosidase inhibitors with potent in vivo antihyperglycemic activities” (Eur J Med Chem, 2024).
Active and inactive are the calls of the source. No cut-off for these calls is given here.

Columns and labels:
[1] = target: T1, Alpha-glucosidase (Saccharomyces cerevisiae S288c, UniProt P53341+P38158+P07265); experiment: Inhibition of Saccharomyces cerevisiae alpha-glucosidase using pNPG as substrate preincubated with compound for 20 mins followed by substrate addition measured after 1 hrs by absorbance based analysis; format: protein assay
[2] = target: T2, Alpha-amylase (Sus scrofa domesticus, UniProt Q7M328); experiment: Inhibition of porcine pancreatic alpha-amylase using pNPG as substrate preincubated with compound for 20 mins followed by substrate addition measured after 1 hrs by absorbance based analysis
T2 sequence (Q7M328 whole entry): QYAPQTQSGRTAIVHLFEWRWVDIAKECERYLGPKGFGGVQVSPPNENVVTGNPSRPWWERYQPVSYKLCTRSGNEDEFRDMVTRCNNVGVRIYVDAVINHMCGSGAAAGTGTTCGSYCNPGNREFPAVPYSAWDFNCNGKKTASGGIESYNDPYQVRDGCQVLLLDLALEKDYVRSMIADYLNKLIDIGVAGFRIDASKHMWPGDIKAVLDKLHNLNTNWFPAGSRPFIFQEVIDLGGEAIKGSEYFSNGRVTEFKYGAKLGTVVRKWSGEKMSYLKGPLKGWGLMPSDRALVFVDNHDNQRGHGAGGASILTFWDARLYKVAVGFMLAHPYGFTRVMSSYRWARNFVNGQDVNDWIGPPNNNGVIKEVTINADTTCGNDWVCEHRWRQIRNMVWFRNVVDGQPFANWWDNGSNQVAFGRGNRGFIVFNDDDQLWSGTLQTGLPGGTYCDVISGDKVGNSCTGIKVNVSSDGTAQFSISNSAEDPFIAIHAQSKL

[3] = tested on: Origanum vulgare; experiment: Inhibition of Origanum vulgare alpha-glucosidase at 18 microg/ml relative to control; settings: dose 18.0 µg/ml
[4] = Inhibition of alpha-glucosidase (unknown origin); design: species or system Homo sapiens
[5] = Cytotoxicity against mouse L929 cells assessed reduction in cell viability incubated for 24 hrs by MTT assay; format: toxicity, cell-based
[6] = Selectivity index, ratio of IC50 for inhibition of porcine pancreatic alpha-amylase using pNPG as substrate to IC50 for inhibition of Saccharomyces cerevisiae alpha-glucosidase using pNPG as substrate
[7] = target: T1, Alpha-glucosidase; experiment: Mixed type inhibition of Saccharomyces cerevisiae alpha-glucosidase using pNPG as substrate assessed as inhibition constant preincubated for 20 mins followed by substrate addition measured after 1 hrs by Lineweaver-burk plot analysis; format: protein assay
[8] = Acute toxicity in Wistar rat assessed as change in salivation at 300 mg/kg, po measured for 14 days; format: organism-based; settings: in vivo, 336 h, time 14 day
[9] = Acute toxicity in Wistar rat assessed as change in salivation at 50 mg/kg, po measured for 14 days; format: organism-based; settings: in vivo, 336 h, time 14 day
[10] = Acute toxicity in Wistar rat assessed as change in salivation at 5 mg/kg, po measured for 14 days; format: organism-based; settings: in vivo, 336 h, time 14 day
[11] = Acute toxicity in Wistar rat assessed as lethal dose measured for 14 days; settings: in vivo, time 14 day
[12] = Acute toxicity in Wistar rat assessed as mortality rate at 300 mg/kg, po measured for 14 days; format: organism-based; settings: in vivo, time 14 day, read-out: Activity
[13] = tested on: Rattus norvegicus; experiment: Hypoglycemic activity in streptozotocin-induced diabetic Wistar rat model assessed as decrease in blood glucose level at 5 to 20 mg/kg, po administered for 5 days and measured after 30 mins by glucometer analysis; format: functional, organism-based; settings: dose 5-20 mg/kg, time 7230.0 min
[14] = tested on: Rattus norvegicus; experiment: Hypoglycemic activity in streptozotocin-induced diabetic Wistar rat model assessed as decrease in blood glucose level at 5 mg/kg, po administered for 5 days and measured after 1 hr by maltose loading test relative to control; format: functional; design: scale not given: the % may be the effect or the level left; settings: time 121 hrs
[15] = tested on: Rattus norvegicus; experiment: Hypoglycemic activity in streptozotocin-induced diabetic Wistar rat model assessed as decrease in blood glucose level at 10 mg/kg, po administered for 5 days and measured after 1 hr by maltose loading test relative to control; format: functional; design: scale not given: the % may be the effect or the level left; settings: time 121 hrs
[16] = tested on: Rattus norvegicus; experiment: Hypoglycemic activity in streptozotocin-induced diabetic Wistar rat model assessed as decrease in blood glucose level at 20 mg/kg, po administered for 5 days and measured after 1 hr by maltose loading test relative to control; format: functional; design: scale not given: the % may be the effect or the level left; settings: time 121 hrs
[17] = tested on: Rattus norvegicus; experiment: Hypoglycemic activity in streptozotocin-induced diabetic Wistar rat model assessed as decrease in blood glucose level at 5 mg/kg, po administered for 5 days and measured after 1 hr by sucrose loading test relative to control; format: functional; design: scale not given: the % may be the effect or the level left; settings: time 121 hrs
[18] = tested on: Rattus norvegicus; experiment: Hypoglycemic activity in streptozotocin-induced diabetic Wistar rat model assessed as decrease in blood glucose level at 10 mg/kg, po administered for 5 days and measured after 1 hr by sucrose loading test relative to control; format: functional; design: scale not given: the % may be the effect or the level left; settings: time 121 hrs
[19] = tested on: Rattus norvegicus; experiment: Hypoglycemic activity in streptozotocin-induced diabetic Wistar rat model assessed as decrease in blood glucose level at 20 mg/kg, po administered for 5 days and measured after 1 hr by sucrose loading test relative to control; format: functional; design: scale not given: the % may be the effect or the level left; settings: time 121 hrs
[20] = tested on: Rattus norvegicus; experiment: Hypoglycemic activity in streptozotocin-induced diabetic Wistar rat model assessed as reduction in fasting blood glucose level at 10 mg/kg, po measured every 7 days for 28 days relative to control; format: functional; design: scale not given: the % may be the effect or the level left; settings: time 7 day
[21] = tested on: Rattus norvegicus; experiment: Hypoglycemic activity in streptozotocin-induced diabetic Wistar rat model assessed as reduction in fasting blood glucose level at 20 mg/kg, po measured every 7 days for 28 days relative to control; format: functional; design: scale not given: the % may be the effect or the level left; settings: time 7 day
[22] = Toxicity in Wistar rat assessed as effect on body weight at 20 mg/kg, po measured for 28 days; format: organism-based; settings: in vivo, 672 h, time 28 day

**Q.** For Cc1ccc(C(C)C)cc1OCc1cn(CCCOc2ccc3ccc(=O)oc3c2)nn1, which IC50 [1] is on record?
**A.** > 100 µM

**Q.** And the IC50 [2]?
**A.** > 100 µM

**Q.** Which IC50 [1] does the source give for Cc1ccc(C(C)C)cc1OCc1cn(CCOc2ccc3ccc(=O)oc3c2)nn1 here?
**A.** 64.21 µM

**Q.** What about the IC50 [2] of the same molecule?
**A.** > 100 µM

**Q.** Which inhibition [3] does the source give for Cc1ccc(C(C)C)c(OS(=O)(=O)c2ccc(F)cc2)c1 here?
**A.** 57.7%

**Q.** What about the IC50 [4] of the same molecule?
**A.** 2.3 µM

**Q.** For O=C(Cn1cc(COc2ccc3ccc(=O)oc3c2)nn1)NCc1cccc(Br)c1, which IC50 [4] is on record?
**A.** 0.543 µM

**Q.** With Cc1ccc(C(C)C)cc1OCc1cn(CCCCCOc2ccc3ccc(=O)oc3c2)nn1 as the molecule, how does the IC50 [1] read?
**A.** > 100 µM

**Q.** What about the IC50 [2] of the same molecule?
**A.** > 100 µM

**Q.** Which IC50 [1] does the source give for Cc1ccc(C(C)C)cc1OCc1cn(CCCCOc2ccc3ccc(=O)oc3c2)nn1 here?
**A.** > 100 µM

**Q.** And the IC50 [2]?
**A.** > 100 µM

**Q.** Which IC50 [1] does the source give for Cc1ccc(C(C)C)cc1OCc1cn(CCOc2cc(=O)oc3ccccc23)nn1 here?
**A.** 78.69 µM

**Q.** What about the IC50 [2] of the same molecule?
**A.** > 100 µM

**Q.** What does the source list for Cc1ccc(C(C)C)c(OCc2cn(CCCCCCOc3ccc4ccc(=O)oc4c3)nn2)c1?
**A.** IC50 [1]: > 100 µM; IC50 [2]: > 100 µM

**Q.** Which results are given for Cc1ccc(C(C)C)cc1OCc1cn(CCCCCOc2cc(=O)oc3ccccc23)nn1?
**A.** IC50 [1]: 4.32 µM; IC50 [2]: 37.4 µM; IC50 at 24 h [5]: > 100 µM; Ratio IC50 [6]: 8.65; Ki [7]: 0.832 µM; Activity [8]: Non-Toxic; Activity [9]: Non-Toxic; Activity [10]: Non-Toxic; LD50 at 336 h [11]: 300 mg/kg; mortality at 336 h [12]: 67%; Activity [13]: Active; Activity [14]: 28.91%; Activity [15]: 62.65%; Activity [16]: 70.12%; Activity [17]: 25.24%; Activity [18]: 59.65%; Activity [19]: 60.23%; Activity [20]: 54.69%; Activity [21]: 62.23%; Activity [22]: Non-Toxic

**Q.** Which IC50 [1] does the source give for Cc1ccc(C(C)C)c(OCc2cn(CCCCCOc3cc(=O)oc4ccccc34)nn2)c1 here?
**A.** 7.53 µM

**Q.** And the IC50 [2]?
**A.** 57.3 µM

**Q.** And the IC50 at 24 h [5]?
**A.** > 100 µM

**Q.** And the Ratio IC50 [6]?
**A.** 7.61

**Q.** Which IC50 [4] does the source give for Cc1ccc(CNC(=O)Cn2cc(COc3cc(=O)oc4ccccc34)nn2)cc1 here?
**A.** 3.5 µM

**Q.** Which IC50 [1] does the source give for Cc1ccc(C(C)C)c(OCc2cn(CCOc3cc(=O)oc4ccccc34)nn2)c1 here?
**A.** 61.24 µM

**Q.** What about the IC50 [2] of the same molecule?
**A.** > 100 µM

**Q.** With Cc1ccc(C(C)C)cc1OCc1cn(CCCCCCOc2cc(=O)oc3ccccc23)nn1 as the molecule, how does the IC50 [1] read?
**A.** 9.23 µM

**Q.** What about the IC50 [2] of the same molecule?
**A.** 69.3 µM

**Q.** And the IC50 at 24 h [5]?
**A.** > 100 µM

**Q.** And the Ratio IC50 [6]?
**A.** 7.51
